“Also recorded” adds a separate entry of the source.
Experiments:
CIPN mice model = assay: paclitaxel-induced CIPN mouse model, Von Frey test; format: in vivo
Excerpt: The procedure of CIPN mouse model and treatment regimen is shown in the upper panel.
Chemotherapy-induced peripheral neuropathy (CIPN) arises from the peripheral nerve damage by anticancer pharmacotherapy, leading to a progressive, enduring, and debilitating condition featuring pain, numbness, tingling and sensitivity to cold in the hands and feet. CIPN afflicts between 30% and 40% of patients undergoing chemotherapy, but currently no effective treatment for CIPN exists (del Pino BM, 2010). Chemotherapy drugs associated with CIPN include the antimitotic drugs such as paclitaxel and vinblastine, which are widely used for the treatment of a variety of cancer. To evaluate the neuroprotective efficacy of the compounds in vivo, we developed an aggressive CIPN mice model as presented in FIG. 5.
Mice were daily administrated with compound 20, at doses of 6, 2, 0.6 and 0 mg/kg (5 animals per group, i.p.) from one week prior to the initiation of paclitaxel (D-7) to 8th day after the initiation of paclitaxel (D8). After one-week pre-dosing with compound 20, mice were injected intraperitoneally with paclitaxel at a dose of 2 mg/kg on 4 alternate days (Day 0, 2, 4, 6). The Von Frey test was conducted the other day after the last administration of paclitaxel. […] Mice were daily administrated with compound NSC, at doses of 1, 3, and 10 mg/kg (5-6 animals per group, i.p.) from one week prior to the initiation of taxol (paclitaxel) (D-7) to 8th day after the initiation of paclitaxel (D8). After one-week pre-dosing with compound NSC, mice were injected intraperitoneally with paclitaxel at a dose of 2 mg/kg on 4 alternate days (Day 0, 2, 4, 6). The Von Frey test was conducted the other day after the last administration of taxol (paclitaxel).

NMNAT3 = NMNAT3 (Homo sapiens, UniProt Q96T66); assay: doubly coupled enzyme assay prepared for NMNAT3; format: biochemical; conditions: 3 μM compound, FIG. 3, NMNAT isoform comparison
Description: (§1) A doubly coupled enzyme assay was prepared for NMNAT1, NMNAT2 and NMNAT3. NMNAT activation is normalized, where the reaction rate of NMNAT in the presence of 3 μM of compound NSC was compared to that of a DMSO-treated control.
(§2) These compounds might represent direct activators of the NMNAT2 enzyme.

SARM1-expressing cells = assay: protection from SARM1-mediated toxicity, cell viability by CellTiter-Glo; format: cell-based; conditions: 0.1, 0.3, 1, 3, 10, and 30 μM, 24 hours, FIG. 4
Description: SARM1-expressing cells were treated with compound NSC at 0.1, 0.3, 1, 3, 10, and 30 μM. After 24 hours, the cell images in bright field were taken under the microscope before cell viability was determined by measuring ATP levels using CellTiter-Glo assay kit.
In the first assay, the compounds were added at 1, 3, 10, 30 and 100 μM in the reaction mixture. The reaction rate of NMNAT2 enzyme was calculated as the slope of the F340/445 versus time curve, and was normalized by DMSO-treated control. The dose response curves were plotted to assess the effects of individual compounds on NMNAT2 enzymatic activity. […] After 24 hours, the cell survival was measured by Cell-titer Glo kit, and normalized by DMSO-treated control. […]
Compounds NSC and 1-40 were evaluated in two independent assays: an in vitro enzyme assay measuring activation of NMNAT2 and a cell-based assay measuring the degree of protection from SARM1 expression in cells. […] The conversion of NMN to NADH was monitored by measuring fluorescence intensity of NADH at an excitation of 340 nm and an emission of 445 nm (Y axis) as a function of time (X axis). Fluorescence at ex340 nm/em445 nm (F340/445) was measured continuously for 30 minutes at room temperature to establish the reaction velocity. The reaction rate of NMNAT2 enzyme was expressed as the concentration of NADH (equivalent to NAD) formed per minute. […]

NMNAT1 = NMNAT1 (Homo sapiens, UniProt Q9HAN9); assay: doubly coupled enzyme assay prepared for NMNAT1; format: biochemical; conditions: 3 μM compound, FIG. 3, NMNAT isoform comparison
Description: as §1, §2

NMNAT2 = NMNAT2 (Homo sapiens, UniProt Q9BZQ4); assay: doubly coupled NMNAT2 enzyme assay (NMNAT2 + ADH, NADH fluorescence); format: biochemical
Description: In a doubly coupled enzyme assay, the first enzyme NMNAT2 (it converted NMN to NAD) and the second enzyme ADH (it converted NAD to NADH) as well as compound NSC at a concentration of 3 μM were used, and the conversion of NMN to NADH was monitored by measuring fluorescence intensity of NADH at an excitation of 340 nm and an emission of 445 nm (Y axis) as a function of time (X axis).
A high-throughput screen was performed in search of compounds capable of activating NMNAT2, an important NAD biosynthetic enzyme. Roughly 50,000 synthetic organic chemicals were tested in a doubly coupled NMNAT assay that contains two enzymes, NMNAT2 and alcohol dehydrogenase (ADH). […] The conversion of NMN to NADH was monitored by measuring fluorescence intensity of NADH at an excitation of 340 nm and an emission of 445 nm (Y axis) as a function of time (X axis). Fluorescence at ex340 nm/em445 nm (F340/445) was measured continuously for 30 minutes at room temperature to establish the reaction velocity. […] The reaction rate is expressed as the concentration of NADH (equivalent to NAD) formed per minute. Since the concentration of NADH is reflected by F340/445, the reaction rate is thus the slope of the linear kinetic curve of F340/445 versus time at time t, written as F340 445/min, which is calculated in the equation: reaction rate=ΔF340/445/Δt. […]

[1] = tested on: alcohol dehydrogenase (ADH); assay: ADH enzyme assay with NAD as substrate (counter-screen); format: biochemical; conditions: 5 μM compound, 50 μM NAD
Description: In a secondary screen, the compounds with the relative reaction rate higher than 150% are cherry-picked and retested in triplicates in the doubly coupled NMNAT2 assay. […] Briefly, the ADH enzyme reaction was prepared to contain 50 mM Tris-Cl (pH 8.0), 12 mM MgCl2, 1.5% ethanol, 10 mM semicarbizide, 0.2% bovine serum albumin (BSA), and 0.04 units ADH. 40 µl of the mixture was dispensed into 384-well black polypropylene plates, and individual compounds were added to each well at a final concentration of 5 μM. The reaction was initiated by addition of 50 μM NAD followed by gentle mixing in the plate. The conversion of NAD to NADH was monitored by measuring fluorescence intensity of NADH at an excitation of 340 nm and an emission of 445 nm (Y axis) as a function of time (X axis). Fluorescence at ex340 nm/em445 nm was measured continuously for 30 minutes to establish the kinetic reaction curve of F340/445 versus time. The reaction rates were calculated as described in the NMNAT2 assay. The relative ADH enzyme reaction rate in the presence of each compound is normalized by DMSO-treated control.

Sequence of NMNAT2 (Q9BZQ4 whole entry, species assumed): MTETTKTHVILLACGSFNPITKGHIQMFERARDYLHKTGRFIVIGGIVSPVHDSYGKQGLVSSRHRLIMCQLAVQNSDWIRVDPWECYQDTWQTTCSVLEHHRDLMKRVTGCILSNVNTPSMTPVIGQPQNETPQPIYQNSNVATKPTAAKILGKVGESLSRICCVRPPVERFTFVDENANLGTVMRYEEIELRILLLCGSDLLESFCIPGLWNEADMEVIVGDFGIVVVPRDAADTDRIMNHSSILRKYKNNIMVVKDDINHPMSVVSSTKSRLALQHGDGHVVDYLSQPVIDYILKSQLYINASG
Sequence of NMNAT1 (Q9HAN9 whole entry, species assumed, canonical isoform): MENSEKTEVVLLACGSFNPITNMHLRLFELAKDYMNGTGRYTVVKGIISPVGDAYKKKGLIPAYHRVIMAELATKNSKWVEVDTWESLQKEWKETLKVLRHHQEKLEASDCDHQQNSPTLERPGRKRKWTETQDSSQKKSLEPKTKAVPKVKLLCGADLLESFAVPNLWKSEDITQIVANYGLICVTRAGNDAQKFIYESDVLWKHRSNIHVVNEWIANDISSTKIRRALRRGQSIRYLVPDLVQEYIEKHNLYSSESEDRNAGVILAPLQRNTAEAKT
Sequence of NMNAT3 (Q96T66 whole entry, species assumed, canonical isoform): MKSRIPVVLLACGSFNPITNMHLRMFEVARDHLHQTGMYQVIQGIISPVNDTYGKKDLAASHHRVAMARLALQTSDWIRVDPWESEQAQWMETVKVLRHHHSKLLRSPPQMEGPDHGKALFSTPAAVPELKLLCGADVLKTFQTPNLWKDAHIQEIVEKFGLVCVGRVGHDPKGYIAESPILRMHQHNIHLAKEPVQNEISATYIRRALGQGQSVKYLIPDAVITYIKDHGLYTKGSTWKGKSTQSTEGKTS

SMILES | mice paw pressure threshold (Von Frey test) (CIPN mice model; 6 mg/kg/day i.p., D-7 to D8, paclitaxel 2 mg/kg on days 0, 2, 4, 6, FIG. 5) | NMNAT3 activation (reaction rate compared to DMSO-treated control) (NMNAT3) | protection of cultured cells against SARM1-mediated toxicity (cell viability, ATP levels) (SARM1-expressing cells) | NMNAT1 activation (reaction rate compared to DMSO-treated control) (NMNAT1) | NMNAT2 activation (reaction rate compared to DMSO-treated control) (NMNAT2; 3 μM compound, FIG. 3, NMNAT isoform comparison) | level of activation in the doubly coupled NMNAT2 assay (NMNAT2; high-throughput screen hits, FIG. 2 with compound at 3 μM) | mice paw pressure threshold (Von Frey test) (CIPN mice model; 3 mg/kg/day i.p., D-7 to D8, paclitaxel 2 mg/kg on days 0, 2, 4, 6, FIG. 6) | mice paw pressure threshold (Von Frey test) (CIPN mice model; 10 mg/kg/day i.p., D-7 to D8, paclitaxel 2 mg/kg on days 0, 2, 4, 6, FIG. 6) | mice paw pressure threshold (Von Frey test) (CIPN mice model; FIG. 6 legend, dose not stated there) | activity in the ADH assay (relative ADH enzyme reaction rate) [1]
C/C(=N\NC(=S)NN)c1ccccn1 [Compound 20, (E)-N′-(1-(pyridin-2-yl)ethylidene)hydrazinecarbothiohydrazide] | significantly increased the mice paw pressure threshold | – | – | – | – | – | – | – | – | –
C/C(=N\NC(=S)N1CCC1)c1ccccn1 [Compound NSC, (E)-N′-(1-(pyridin-2-yl)ethylidene)azetidine-1-carbothiohydrazide] | – | not NMNAT3 | protects cultured cells against SARM1-mediated toxicity | NMNAT1 weakly; also recorded: activates NMNAT2 and NMNAT1 | activated NMNAT2 strongly; also recorded: activates NMNAT2 | most robust level of activation; also recorded: NMNAT2 activation | significantly increased the mice paw pressure threshold | significantly increased the mice paw pressure threshold | significantly increased the mice paw pressure threshold | inactive in the ADH assay

From US20250059160A1, “Chemical Activators of Nicotinamide Mononucleotide adenylyltransferase 2 (NMNAT2) and Uses Thereof” (Tsinghua University, priority 2018, published 2025)
